Test results reported in US6319951A, “Use of 3-amino-4-hydroxybenzoic acid for the treatment of retroviral infections” (priority 1996, dated 2001).
In brackets after ≈: the same amount, converted by molar mass. Several values for one entry are separate records, joined by “and”; a condition that tells them apart may be missing. Equal values may be shown once. Entries after “also recorded” stand apart in the source; their conditions may differ. Read-outs that look alike come from different tables or passages of the source.

Legend:
[1] = adverse effects in HIV/AIDS patients; format: in vivo, human
Text: Our experience in using 3-amino-4-hydroxybenzoic acid to treat HIV/AIDS has shown only one non-uniform adverse effect. […] In the case of 3-amino-4-hydroxybenzoic acid, this occasional side effect can be averted by feeding before administration, giving a flavouring agent before administration or preparing the medicament in capsule form. The nausea is temporary. The medicament is preferably taken for approximately 28 days.

Candida albicans = assay: antimicrobial activity, fungi, Candida albicans
Herpes simplex = assay: antimicrobial activity, Herpes simplex
gonorrhoeae = assay: patient with gonorrhoea treated orally; format: in vivo, human; settings: 1.6 g orally
Protocol: (§1) When a patient, with a frankly discharging gonorrhoeae was given 1.6 g of 3-amino-4-hydroxybenzoic acid orally, the discharge ceased in 12 hours but recurred in the 24th hour after treatment.

HIV [2] = format: in vivo
Protocol: Clinical observations on HIV/AIDS Patients Treated with 3-amino-4-hydroxybenzoic acid
Treatment was administered orally to each patient taking 200 mg of 3-amino-4-hydroxybenzoic acid tds for 14 days.

HIV [3] = assay: dipping HIV into aqueous 3-amino-4-hydroxybenzoic acid; settings: aqueous solution, 30 seconds
Text: This duration is too short to be an inhibition of protein synthesis. It could only be an irreversible binding of the viral coat at gp120, gp160 or gp41 thereby making the virus fail to attach itself to the CD4 surface markers of target cells. […] It may also inactivate the lytic enzyme essential for HIV entry into the host cell as it does for hyaluronidase.

HIV [4] = assay: T-cell observations after HIV/AIDS treatment (Example 4); format: in vivo
Protocol: Symptomatic and asymptomatic seropositive individuals were treated with 3-amino-4-hydroxybenzoic acid (200 mg tds orally) for two weeks. CD4 :CD8 ratios were taken before and three months after treatment. […] Based on its inherent ability to inactivate HIV in vitro it is probable that 3-amino-4-hydroxybenzoic acid suppresses or inactivates the HIV in affected individuals.
The individuals were taken randomly as they became available (3 male and 4 female). Their T-cell counts were taken before treatment and three months after treatment. They were given 3-amino-4-hydroxybenzoic acid as 200 mg tds orally and followed on daily basis as they took 3-amino-4-hydroxybenzoic acid for two weeks. Thereafter they were followed weekly for the first month after finishing the course of medicine and then monthly.

safety study on chicken = format: in vivo; settings: oral, 9 days, up to 400.6 mg/kg
Text: A chicken of 500 g was used and 3-amino-4-hydroxybenzoic acid in water was forced down the esophagus using a plastic syringe over 9 days.

HIV [5] = assay: antimicrobial activity, HIV
HIV [6] = assay: trial based on clinical and haematological findings (Example 5); format: in vivo
Text: In addition, trial based on clinical and haematological findings have shown the following observations.

HIV [7] = assay: T-cell counts of patients JE001-JE0015, once daily dosing (Example 5); format: in vivo
Protocol: These were made on patients JE001-JE0015 who received 200 mg of 3-amino-4-hydroxybenzoic acid orally only once per day for two weeks and whose T-cell counts were analysed after only 6 weeks.
Continuous study of viral load by quantitative PCR when available will show the optimum dose and duration of administration of 3-amino-4-hydroxybenzoic acid.
An explanation is that the CD4 cells which carry HIV die after 3-amino-4-hydroxybenzoic acid kills the virus in them. Later as the precursor cells form other CD4 s without HIV to destroy them, the total CD4 count will be found even higher than before treatment.

[8] = safety study on human volunteers; format: in vivo; settings: 7 volunteers, oral; person 1: 200 mg stat and 200 mg tds x 2/52; person 3: 800 mg stat
Text: Safety Study on Human Volunteers
Dose & Frequency of 3- Total 3-amino-4-
amino-4-hydroxybenzoic hydroxybenzoic acid
Person acid Intake mg/kg
Each person took 3-amino-4-hydroxybenzoic acid orally.

water solubility = format: physicochemical
hyaluronidase = settings: acrosomal proteolytic enzyme of sperm; cited from earlier work
Trichomona vapinalis = assay: antimicrobial activity, protozoan Trichomonas
Neisseria gonorrhoeae = assay: antimicrobial activity, Neisseria gonorrhoeae
[9] = Therapeutic Index determination
Text: The Therapeutic Index of 3-amino-4-hydroxybenzoic acid has been determined. International pharmacological principles demand that for human safety the Therapeutic Index of any drug to be used for human treatment should be greater than a unit, i.e. 1. If the Index is greater than 1, patients can take the drug without medical supervision and without experiencing adverse effects. There are, however, cases where therapeutic indices are less than 1 where the benefits outweigh the risks. This holds in the administration of anti-cancer drugs which mandate the availability of competent medical supervision. The reason behind this is that the drugs are supposed to destroy cancerous human cells. The difference between normal human cells and cancerous human cells is, as expected, minimal. It is expected that the difference between HIV and normal human cells would be colossal.
Therapeutic Index for 3-amino-4-hydroxybenzoic acid is: [formula]
The index for 3-amino-4-hydroxybenzoic acid is 40,000 which is good mathematical proof to back the safety of 3-amino-4-hydroxybenzoic acid as a drug to treat HIV.

Treponema pallidum = assay: antimicrobial activity, Treponema pallidum
[10] = absorption and excretion inferred from oral treatment of gonorrhoea patient; format: in vivo, human; settings: 1.6 g
Protocol: as §1

HIV [11] = format: in vivo; remark: listed apart in the source
HIV [12] = assay: electron microscopy of patient blood (Example 6); format: in vivo; settings: two patients, before treatment and 28 days after
Text: (§2) Blood samples were taken for electron microscopy and HIV culture before and after treatment of two patients.

Escherchia coli = assay: antimicrobial activity, Escherichia coli
human lymphocytes = assay: adverse effect on human lymphocytes in HIV culture; format: cell-based; settings: at minimum concentration of 0.5 mg/l
HIV [13] = assay: HIV culture from patient blood (Example 6); format: in vivo
Text: as §2

safety study on rabbit = format: in vivo; settings: intraperitoneal, 9 days, up to 133.3 mg/kg
HIV [14] = assay: inactivation of HIV cultivated in human lymphocytes (minimum inhibitory concentration); format: cell-based
[15] = 200 mg tds oral, 14 days, patient three (1)
[16] = 200 mg tds orally, two weeks, before vs three months after treatment
[17] = per patient, 200 mg tds orally, two weeks, three months after treatment
[18] = patient three (8), in 6 months of treatment

In the case of `Nc1cc(C(=O)O)ccc1O` [3-amino-4-hydroxybenzoic acid], the adverse effect ([1]; HIV/AIDS patients) is reported as “nausea and vomiting in the very weak”, the side effects noted ([1]; chicken, rabbit, sheep and human volunteers) is reported as “Only tolerable nausea and occasional vomiting” and the antimicrobial activity (Candida albicans) is reported as “established”. For the same compound, the antimicrobial activity (Herpes simplex) was “established”, the bacteriostatic effect (gonorrhoeae) was “bacteriostatic” and the “time to cessation of gonorrhoeal discharge” value (gonorrhoeae) was 12 h. For the same compound, the “body weight after treatment” value (HIV [2]; [15]) was 48 kg, the haemoglobin after treatment (HIV [2]; [15]) was 16% and the “lymphocytes (relative) after treatment” value (HIV [2]; [15]) was 49%. For the same compound, the “body weight before treatment” value (HIV [2]; 200 mg tds oral, 14 days, patient three (1), baseline) was 44 kg, the “clinical, haematological and weight gain assessment” value (HIV [2]; about 20 patients) was “found to improve” and the average weight gain (HIV [2]; average patient, within the first month) was 5 kg. For the same compound, the signs and symptoms (HIV [2]; patient five (3), after 2 weeks) was “the signs and symptoms were over”, the “standing and walking unaided” value (HIV [2]; patient four (9)) was “By the third day they could stand and walk unaided” and the “time until diarrhoea ceased” value (HIV [2]; patient four (9)) was 24 h. For the same compound, the vomiting and diarrhoea (HIV [2]; patient four (9)) was “over by the third day”, the health at follow-up (HIV [2]; patient four (9), 22.1.95 and May 19th 1995) was “in perfect health on 22.1.95” and the serum iron (HIV [2]; patient four (9), all along the time of treatment) was “normal”. For the same compound, the “wounds healed, signs and symptoms over” value (HIV [2]; patient four (9), by end of second week) was “wounds had healed and all their signs and symptoms were over”, the haemoglobin rise (HIV [2]; patient four (9), by the sixth month) was 1 g % and the weight gain (HIV [2]; patient four (9), in six months) was 1 kg. The haemoglobin after treatment (HIV [2]; patient four (9), sixth month) was 11.9%, the “oral ulcers, genital wounds and lymph node enlargement” value (HIV [2]; patient one (2)) was “over by the second week of treatment” and the “time until able to go to the toilet and bathroom unaided” value (HIV [2]; patient one (2)) was at most 5 days. The “body weight before treatment” value (HIV [2]; patient one (2), baseline) was 41 kg, the weight gain (HIV [2]; patient one (2), in 3 weeks) was 2.5 kg and the rashes and pigmentation (HIV [2]; patient six (6), in 2 weeks of treatment) was “The rashes subsided and the pigmentation returned to normal skin colour”. The “time until signs and symptoms were over” value (HIV [2]; patient three (1)) was “six”, the haemoglobin before treatment (HIV [2]; patient three (1), baseline) was 11.69% and the “lymphocytes (relative) before treatment” value (HIV [2]; patient three (1), baseline) was 39%. For the same compound, the “body weight before treatment” value (HIV [2]; patient three (8), baseline) was 44 kg, the haemoglobin before treatment (HIV [2]; patient three (8), baseline) was 12.1% and the “functional recovery (house work, shopping)” value (HIV [2]; patient two (7), in 5 days of treatment) was “able to do their house work, go for salary from their place of work and even go to the market for shopping”. For the same compound, the “infectivity of HIV after dipping” value (HIV [3]) was “renders the virus uninfective”, the immunological improvement (HIV [4]; 200 mg tds orally, two weeks) was “there is immunological improvement” and the “mean increase in CD4” value (HIV [4]; 200 mg tds orally, two weeks, 7 patients) was 208. For the same compound, the “CD4:CD8 ratio change” value (HIV [4]; [16]) was “rose”, the “CD8 change” value (HIV [4]; [16]) was “decreased to varying levels in all of the individuals” and the “Increase in CD4 after treatment” value (HIV [4]; 200 mg tds orally, two weeks, three months after treatment, per patient) was 531 CD4/mm^3 and 72 CD4/mm^3 and 160 CD4/mm^3 and 40 CD4/mm^3 and 184 CD4/mm^3 and 102 CD4/mm^3 and 465 CD4/mm^3. The “CD4/CD8 Ratio Before Treatment” value (HIV [4]; per patient, baseline) was 0.845 and 0.00 and 0.7 and 0.3 and 0.29 and 0.9, the “CD4 Count Before Treatment” value (HIV [4]; per patient, baseline) was 561 CD4/mm3 and 50 CD4/mm3 and 650 CD4/mm3 and 460 CD4/mm3 and 300 CD4/mm3 and 1122 CD4/mm3 and 1014 CD4/mm3 and the “CD4/CD8 Ratio After Treatment” value (HIV [4]; [17]) was 1.632 and 0.06 and 2.2 and 0.2 and 0.564 and 0.78 and 1.11. For the same compound, the “CD4 Count After Treatment” value (HIV [4]; [17]) was 1092 CD4/mm3 and 112 CD4/mm3 and 810 CD4/mm3 and 500 CD4/mm3 and 484 CD4/mm3 and 1326 CD4/mm3 and 1479 CD4/mm3, the adverse effects (safety study on chicken) was “no adverse effects observed” and the antimicrobial activity (HIV [5]) was “established”. The “time until anorexia subsides” value (HIV [6]; human, in vivo) was at most 5 days, the “time until bed ridden patients can stand and do light work” value (HIV [6]; human, in vivo) was at most 2 weeks and the “time until diarrhoea stops” value (HIV [6]; human, in vivo) was 1-3. The “time until fever and weakness subside” value (HIV [6]; human, in vivo) was at most 1 week, the “time until haemoglobin normalizes” value (HIV [6]; human, in vivo) was at most 1 month and the “time until poor vision normalizes” value (HIV [6]; human, in vivo) was at most 1 week. For the same compound, the “time until rashes and hyper pigmentation of scars subside” value (HIV [6]; human, in vivo) was at most 5 days, the “time until sleep normalizes in intensity and rhythm” value (HIV [6]; human, in vivo) was at most 2 days and the “time until vomiting ceases” value (HIV [6]; human, in vivo) was at most 2 days. The “time until oral and anogenital ulcers heal” value (HIV [6]; human, in vivo, po) was at most 1 week, the average weight gain (HIV [6]; within the first month of treatment) was 5 kg and the “T-cell results” value (HIV [7]; 200 mg orally once per day, two weeks, analysed after 6 weeks, vs patient JC004 (200 mg tds)) was “The results were poor”. The “CD4 count when counted earlier than three months” value (HIV [7]; earlier than three months) was “low figures even lower than before the start of treatment”, the persons experiencing nausea [8] was “Only persons 1 and 3 experienced nausea without vomiting” and the solubility in water (water solubility) was “not readily soluble in water”. The inactivation of hyaluronidase (hyaluronidase) was “inactivates an achrosomal proteolytic enzyme hyaluronidase”, the antimicrobial activity (Trichomona vapinalis) was “established” and the antimicrobial activity (Neisseria gonorrhoeae) was “established”. The “Therapeutic Index” value [9] was 40,000, the selectivity ratio [9] was 40000 and the antimicrobial activity (Treponema pallidum) was “established”. For the same compound, the “absorption from the gut / excretion” value [10] was “sufficiently absorbed from the gut; also recorded: well absorbed and excreted”, the hair (HIV [11]; patient four (9), by 6 weeks of treatment) was “their thin silk hair had reverted to the normal Afro type” and the “body weight after treatment” value (HIV [11]; [18]) was 53 kg. The haemoglobin after treatment (HIV [11]; [18]) was 14.9%, the “HIV particles by electron microscopy” value (HIV [12]) was “HIV particles before treatment but not 28 days after treatment” and the antimicrobial activity (Escherchia coli) was “established”. The “adverse effect to the lymphocytes” value (human lymphocytes) was “without any adverse effect to the lymphocytes”, the “eradication of HIV from patients' blood” value (HIV [13]; 3 mg/kg tds, 28 days) was “eradicates HIV from the patients blood” and the HIV culture growth (HIV [13]; two patients, before treatment and after 28 days of treatment) was “grew HIV but not after 28 days of treatment”. The adverse effects (safety study on rabbit) was “no adverse effects observed”, the MIC (HIV [14]; Human immunodeficiency virus 1, HIV cultivated in human lymphocytes, read-out: minimum inhibitory concentration / minimum concentration inactivating cultivated HIV) was 0.5 µg/mL (≈ 3.27 µM) and the “inactivation of cultivated HIV” value (HIV [14]; in vitro, cultivated HIV) was “completely inactivate cultivated HIV”.
